Laboratory results reported in patent publication US4518528A, “α Amino fluoro ketones” (priority 1984, dated 1985).
Values belong to the compound of their own block, whether it stands above or below them. Where a SMILES comes first, the peptide text is derived from it. [ ]: non-standard residue; d: D form. The star is where a group is joined. ξ: configuration not given here. ξF = NC(Cc1ccccc1)C(=O)O; Cbz = O=C(OCc1ccccc1)*; CH2F = FC*

Experiments:
[1] = test system: plasma kallikrein; assay: Inhibition of plasma kallikrein by the method of Example 23; assay type: biochemical; settings: protease about 10 μM, ketone inhibitor about 0.1 mM
Protocol: (§1) An aqueous solution of elastase (0.3 μM) in 0.1M TES pH 8.2 containing CaCl2 (10 mM) was assayed against the synthetic substrate MeOSuc-Ala-Ala-Pro-Val-MNA. The liberated detecting group (MNA) was quantitated by fluorescence. A standard number of enzyme units were preincubated with each inhibitor at several concentrations for set time periods of 5, 15, 30, and 60 minutes at 37°; then all test samples were individually assayed for activity using the same synthetic substrate and conditions as per control with inhibitors absent. The amount of enzyme activity inhibited by each inhibitor was determined by subtracting the residual activity for each inhibitor against the control activity.
Following the method of Example 23, above, the serine protease plasma kallikrein is inhibited by the ketone inhibitor D-Pro-Phe-ArgCH2 F under the same conditions with a protease concentration of about 10 μM and ketone inhibitor concentration of about 0.1 mM.

[2] = test system: glandular kallikrein; assay: Inhibition of glandular kallikrein by the method of Example 23; assay type: biochemical; settings: protease about 10 μM, ketone inhibitor about 0.1 mM
Protocol: as §1
Following the method of Example 23 above, the serine protease glandular kallikrein is inhibited by the ketone inhibitor D-Val-Leu-ArgCH2 F with a protease concentration of about 10 μM and a ketone inhibitor concentration of about 0.1 mM.

[3] = test system: plasminogen activator; assay: Inhibition of plasminogen activator by the method of Example 23; assay type: biochemical; settings: protease about 50 μM, ketone inhibitor about 0.1 mM
Protocol: as §1
Following the method of Example 23, above, the serine protease plasminogen activator is inhibited by MeOSuc-Gly-Gly-ArgCH2 F under the same conditions with a protease concentration of about 50 μM and a ketone inhibitor concentration of about 0.1 mM.

[4] = test system: trypsin; assay: Inhibition of trypsin by the method of Example 23; assay type: biochemical; settings: protease about 10 μM, ketone inhibitor about 0.1 mM
Protocol: as §1
Following the method of Example 23 above, the serine protease trypsin is inhibited by the ketone inhibitor Z-LysCH2 F with a protease concentration of about 10 μM and a ketone inhibitor concentration of about 0.1 mM.

[5] = molecular target: T1, cathepsin B (Rattus norvegicus, UniProt P00787); assay: Rate of inhibition of cathepsin B in rat tissue homogenates; assay type: biochemical; settings: inhibitor 0.10 μM, 25°
T1 construct: cathepsin B in rat spleen, pancreas, liver and kidney tissue homogenates; from tissue; host or cells: rat spleen, pancreas, liver and kidney (supernatant of homogenates)
Protocol: (§2) Enzyme activity was assayed using the synthetic oligopeptide substrate Bz-Val-Lys-Arg-AFC with 10 mM DTT and 1 mM of the activator salt EDTA at pH 6.5 by fluorescence detection of the liberated AFC. Units of enzyme activity were standardized per 100 ml of a 50 percent of glycerol-phosphate buffer solution. A standard concentration of enzyme (10 nM) was preincubated with each inhibitor (50 nM) over set time periods of 3, 5, 10, 15, 20 and 30 minutes, 25°; then all test samples were individually assayed for activity using the same synthetic substrate and condition to determine the remaining units of activity of the purified enzyme. The amount of enzyme activity inhibited by each inhibitor was determined by subtracting the residual activity for each inhibitor against the control activity. […] The inhibitor specificity constant (k3 /KI) for Z-Phe-AlaCH2 F is 30 fold higher than for Z-Phe-AlaCHN2.
The rate of inhibition of cathepsin B in rat spleen, pancreas, liver and kidney tissue homogenates was assayed using the inhibitors: Z-Phe-AlaCHN2; Z-Phe-AlaCH2 Cl; and Z-Phe-AlaCH2 F.
The proceding tissues were homogenized, centrifuged at 13,000 rpm for 25 minutes and the supernatant removed. Aliquots of the supernatant were diluted with water to yield a concentration of 0.01 μM. The method of Example 9 was followed. As soon in Table III, the inhibition by the three inhibitors relevant to Cathepsin B were compared for each of the tissue samples. Results are expressed as .tau. (the half-time of inactivation, inhibition). […] The concentration for the inhibitors was 0.10 μM and the incubation temperature was 25°.

[6] = test system: cathepsin B; assay: Irreversible inhibition of purified cathepsin B, fluorescence assay with Bz-Val-Lys-Arg-AFC; assay type: biochemical, human and rat; settings: for k3 (rate constant of inactivation) / Ki: pH 6.5, 10 mM DTT, 1 mM EDTA, 25°; for Ki: read-out: KI (inhibitor dissociation constant); for k3 /KI (inhibitor specificity constant): pH 6.5, 25°
Protocol: as §2, with “([…])” for “(10 nM) was preincubated with each inhibitor (50 nM)”

[7] = test system: porcine pancreatic elastase; assay: Irreversible inhibition of elastase, fluorescence assay with MeOSuc-Ala-Ala-Pro-Val-MNA; assay type: biochemical; settings: alkaline conditions (0.1M TES pH 8.2, 10 mM CaCl2), 37°
Protocol: as §1

[8] = test system: cathepsin L; assay: Inhibition of cathepsin L by the method of Example 22; assay type: biochemical; settings: same conditions and concentrations of protease to ketone inhibitor as Example 22
Protocol: Enzyme activity was assayed using the synthetic oligopeptide substrate Bz-Val-Lys-Arg-AFC with 10 mM DTT and 1 mM of the activator salt EDTA at pH 6.5 by fluorescence detection of the liberated AFC. Units of enzyme activity were standardized per 100 ml of a 50 percent of glycerol-phosphate buffer solution. A standard concentration of enzyme (10 nM) was preincubated with each inhibitor (50 nM) over set time periods of 3, 5, 10, 15, 20 and 30 minutes, 25°; then all test samples were individually assayed for activity using the same synthetic substrate and condition to determine the remaining units of activity of the purified enzyme. The amount of enzyme activity inhibited by each inhibitor was determined by subtracting the residual activity for each inhibitor against the control activity.

T1 sequence (P00787 80-339): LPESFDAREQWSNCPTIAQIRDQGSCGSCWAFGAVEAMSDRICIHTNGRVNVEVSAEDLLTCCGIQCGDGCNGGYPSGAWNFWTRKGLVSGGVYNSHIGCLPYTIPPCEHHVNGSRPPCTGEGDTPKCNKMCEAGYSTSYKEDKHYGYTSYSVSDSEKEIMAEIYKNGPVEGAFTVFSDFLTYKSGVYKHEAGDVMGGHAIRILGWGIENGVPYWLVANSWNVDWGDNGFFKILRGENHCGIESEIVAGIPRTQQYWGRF

SMILES: N=C(N)NCCC[C@H](NC(=O)[C@H](Cc1ccccc1)NC(=O)[C@H]1CCCN1)C(=O)CF [D-Pro-Phe-ArgCH2 F] (HELM PEPTIDE1{[dP].F.R.[FC[*:1]]}$$$$V2.0)
inhibition of plasma kallikrein (in words) [1]: inhibited

SMILES: CC(C)C[C@H](NC(=O)[C@H](N)C(C)C)C(=O)N[C@@H](CCCNC(=N)N)C(=O)CF [D-Val-Leu-ArgCH2 F] (HELM PEPTIDE1{[dV].L.R.[FC[*:1]]}$$$$V2.0)
inhibition of glandular kallikrein (in words) [2]: inhibited

SMILES: COC(=O)CCC(=O)NCC(=O)NCC(=O)NC(CCCNC(=N)N)C(=O)CF (stereo not drawn) [MeOSuc-Gly-Gly-ArgCH2 F]
inhibition of plasminogen activator (in words) [3]: inhibited

SMILES: NCCCCC(NC(=O)OCc1ccccc1)C(=O)CF (stereo not drawn) [Z-LysCH2 F]
inhibition of trypsin (in words) [4]: inhibited

.tau. Half-Time (half-time of inactivation) ([5]; rat KIDNEY homogenate): 76.6 min
.tau. Half-Time (half-time of inactivation) ([5]; rat LIVER homogenate): 66.5 min
.tau. Half-Time (half-time of inactivation) ([5]; rat PANCREAS homogenate): 21.4 min
.tau. Half-Time (half-time of inactivation) ([5]; rat SPLEEN homogenate): 74.2 min
SMILES: C[C@H](NC(=O)[C@H](Cc1ccccc1)NC(=O)OCc1ccccc1)C(=O)CCl [Z-Phe-AlaCH2 Cl]

k3 /KI fold higher than for Z-Phe-AlaCHN2 ([6]; purified cathepsin B): 30 fold
Ki ([6]; purified cathepsin B): 0.57 ± 0.09 µM
k3 /KI (inhibitor specificity constant) ([6]; purified cathepsin B): 16,200 M^-1 s^-1
inhibition of porcine pancreatic elastase (in words) [7]: inhibits
.tau. Half-Time (half-time of inactivation) ([5]; rat KIDNEY homogenate): 7.9 min
.tau. Half-Time (half-time of inactivation) ([5]; rat LIVER homogenate): 8.5 min
.tau. Half-Time (half-time of inactivation) ([5]; rat PANCREAS homogenate): 12.4 min
.tau. Half-Time (half-time of inactivation) ([5]; rat SPLEEN homogenate): 14.2 min
SMILES: CC(NC(=O)[C@H](Cc1ccccc1)NC(=O)OCc1ccccc1)C(=O)CF (stereo partly drawn) [Z-Phe-AlaCH2 F, 3-(N-Benzyloxycarbonylphenylalanylamido)-1-fluoro-2-butanone]
inhibition of purified cathepsin B (in words) ([6]; 0.1 μM inhibitor): effective inhibitor
k3 (rate constant of inactivation) ([6]; purified cathepsin B): 9.2±1.3×10^-3 s^-1
inhibition of cathepsin L (in words) [8]: inhibited

Ki ([6]; purified cathepsin B): 7.4 ± 3 µM
k3 /KI (inhibitor specificity constant) ([6]; purified cathepsin B): 546 M⁻¹ s⁻¹
.tau. Half-Time (half-time of inactivation) ([5]; rat KIDNEY homogenate): 20.1 min
.tau. Half-Time (half-time of inactivation) ([5]; rat LIVER homogenate): 22.4 min
.tau. Half-Time (half-time of inactivation) ([5]; rat PANCREAS homogenate): 15.8 min
.tau. Half-Time (half-time of inactivation) ([5]; rat SPLEEN homogenate): 26.4 min
SMILES: C[C@H](NC(=O)[C@H](Cc1ccccc1)NC(=O)OCc1ccccc1)C(=O)C=[N+]=[N-] [Z-Phe-AlaCHN2]
k3 (rate constant of inactivation) ([6]; purified cathepsin B): 4.1±1.7×10^-3 s^-1

SMILES: O=C(N[C@@H](Cc1ccccc1)C(=O)NC(Cc1ccccc1)C(=O)CF)OCc1ccccc1 (stereo partly drawn) [Z-Phe-PheCH2 F] (Cbz-Phe-[ξF]-CH2F)
inhibition of cathepsin L (in words) [8]: inhibited
